System: Formosan subterranean termite workers
Test: Laboratory foraging-box bait test, groups of 1000 termite workers (colorant:CSI dose determination)
Format: in vivo, Coptotermes formosanus
Conditions: for Groups of 1000 termite workers alive: of 12 boxes
Procedure: Under a laminar flow hood, 66 g colored cellulose powder at concentration of 50, 100, 225, 250, 500, or 750 ppm (0.010, 0.020, 0.045, 0.050, 0.100, or 0.150 g, respectively) from example 1 was mixed with 135 ml of sterile nutritional supplement (formulated as in example 1) in a 250 ml sterile glass beaker (prepared as reported by Rojas, M. G. and Morales-Ramos, J. A., “Bait matrix for delivery of chitin synthesis inhibitors to the Formosan subterranean termite [Isoptera: Rhinotermitidae],” J. Econ. Entomol., 94(2): 506-510 (2001)). A dose of 175 ppm of diflubenzuron was added to the formulations containing 50 and 100 ppm of calco oil blue. A lower dose of 50 ppm of diflubenzuron was added to the formulations containing 225 and 500 ppm of calco oil blue. The mixture was manually homogenized using a stainless steel spatula. To encase the bait matrix, tubes made of fibrous casing material (#124B; L.E.M. Products, Inc., Miamitown, Ohio) were cut into 150 mm long portions as reported by Rojas and Morales-Ramos (2001) supra. Fifty grams of bait matrix containing the blue colorant was compacted into one end of the inlet tube, at which point the open end of the inlet tube was closed with a rubber band. The bait casing was placed inside the foraging box adjacent to a 10 g piece of pine wood, taking care that they were partially covered with the sand. Control bait matrix was prepared minus blue colorant, and presented in the same was as the treatment matrix to Formosan subterranean termite workers taken from four different colonies, with 3 boxes per locality totaling twelve boxes of 1000 termites per treatment (Rojas and Morales-Ramos supra). All the experimental boxes were maintained under darkness at 27±1° C. and 90±2% relative humidity. Observations were done every 72 hours until all the termites died. The time to reach 100% mortality was measured and recorded. Mean comparisons among treatments and control were conducted.

**Q.** Which “Groups of 1000 termite workers alive” value (1 Month, Calco oil blue V 50 ppm + Diflubenzuron 175 ppm) does the source give for `CCCCC(CC)CNc1ccc(NCC(CC)CCCC)c2c1C(=O)c1ccccc1C2=O` (stereo not shown) [Calco oil blue V, 9,10-anthracenedione, 1,4-bis[(2-ethylhexyl)amino]] here?
**A.** 11

**Q.** And the “Groups of 1000 termite workers alive” value (1 Month, Calco oil blue V 100 ppm + Diflubenzuron 175 ppm)?
**A.** 9

**Q.** And the “Groups of 1000 termite workers alive” value (1 Month, Calco oil blue V 225 ppm + Diflubenzuron 50 ppm)?
**A.** 7

**Q.** What about the “Groups of 1000 termite workers alive” value (1 Month, Calco oil blue V 500 ppm + Diflubenzuron 50 ppm) of the same molecule?
**A.** 9

**Q.** And the “Groups of 1000 termite workers alive” value (2 Months, Calco oil blue V 50 ppm + Diflubenzuron 175 ppm)?
**A.** 10

**Q.** And the “Groups of 1000 termite workers alive” value (2 Months, Calco oil blue V 100 ppm + Diflubenzuron 175 ppm)?
**A.** 4

**Q.** What about the “Groups of 1000 termite workers alive” value (2 Months, Calco oil blue V 225 ppm + Diflubenzuron 50 ppm) of the same molecule?
**A.** 2

**Q.** What about the “Groups of 1000 termite workers alive” value (2 Months, Calco oil blue V 500 ppm + Diflubenzuron 50 ppm) of the same molecule?
**A.** 4

**Q.** And the “Groups of 1000 termite workers alive” value (3 Months, Calco oil blue V 50 ppm + Diflubenzuron 175 ppm)?
**A.** 5

**Q.** And the “Groups of 1000 termite workers alive” value (3 Months, Calco oil blue V 100 ppm + Diflubenzuron 175 ppm)?
**A.** 1

**Q.** And the “Groups of 1000 termite workers alive” value (3 Months, Calco oil blue V 225 ppm + Diflubenzuron 50 ppm)?
**A.** 0

**Q.** What about the “Groups of 1000 termite workers alive” value (3 Months, Calco oil blue V 500 ppm + Diflubenzuron 50 ppm) of the same molecule?
**A.** 3

**Q.** And the “effect on molting of immature termites” value (after a month and a half, 50 ppm or 100 ppm calco blue + 175 ppm diflubenzuron)?
**A.** immature termites molted prematurely

**Q.** What about the “effect on molting of immature termites” value (after a month, 225 ppm calco blue + 50 ppm diflubenzuron) of the same molecule?
**A.** immature termites molted prematurely

**Q.** What about the “time to mortality of a 1000-worker colony” value (calco blue + diflubenzuron combination, depending on health and age of the colony) of the same molecule?
**A.** about 4 weeks

**Q.** And the “palatability of the bait” value (calco blue concentrations above 750 ppm)?
**A.** unpalatable

**Q.** What about the Bait consumption (calco blue concentrations above 1000 ppm) of the same molecule?
**A.** consumption is almost nonexistent

**Q.** And the “time some termite colonies required to begin feeding on the formulations” value (concentration of blue >225 ppm)?
**A.** more than 8 hrs

**Q.** What about the “time until experimental colony was dead” value (exposure to formulation containing calco oil blue V and diflubenzuron, control boxes alive after 3 months) of the same molecule?
**A.** about two months and a half
